Measured values from article PMC11721672, “Design, Structure–Activity Relationships, and Computational Modeling Studies of a Series of α-Helix Biased, Ultra-Short Glucagon-like Peptide-1 Receptor Agonists” (Molecules, 2024).
Square brackets hold non-standard residues; d marks the D form. Peptide text beside a SMILES is read from it. Bip = N[C@@H](Cc1ccc(-c2ccccc2)cc1)C(=O)O; αMePhe(2-F) = C[C@](N)(Cc1ccccc1F)C(=O)O; Phe(2-F) = N[C@@H](Cc1ccccc1F)C(=O)O; Aib = CC(C)(N)C(=O)O

Experiments:
hGLP1 receptor = biological target: T1, hGLP1 receptor (Homo sapiens, UniProt P43220); assay: GLP-1 receptor agonism assay (HTRF cAMP, HEK cells co-expressing hGLP1 receptor and CRE-Luciferase); format: cell-based; details: for decreased potency by Aib substitution: Aib-scanning, versus parent analog RXL-101; for Emax: HEK293, Table 6 potency profile; for dpEC50 (contribution of Cα-methylation): dpEC50 = pEC50 (Aib) − pEC50 (Ala) − 0.97, Aib peptide versus the Ala peptide of the same line; for dpEC50 (contribution of Cα-methylation) / pEC50 / EC50: 0% HSA; for rescue of potency by Aib versus Ala substitution: Aib analog versus Ala analog at the same position; for decreased potency of Aib analog versus Ala analog: same position, Ala superior to Aib; for EC50: Table 2, Ala-scanning, >1000 nM = out of range, read-out: cAMP EC50; for decreased potency (Aib/Ala comparison): versus respective parent analog
T1 construct: expressed in transfected cells; host or cells: HEK (human embryonic kidney) cells co-expressing hGLP1 receptor and CRE-Luciferase
T1 sequence (P43220 24-463): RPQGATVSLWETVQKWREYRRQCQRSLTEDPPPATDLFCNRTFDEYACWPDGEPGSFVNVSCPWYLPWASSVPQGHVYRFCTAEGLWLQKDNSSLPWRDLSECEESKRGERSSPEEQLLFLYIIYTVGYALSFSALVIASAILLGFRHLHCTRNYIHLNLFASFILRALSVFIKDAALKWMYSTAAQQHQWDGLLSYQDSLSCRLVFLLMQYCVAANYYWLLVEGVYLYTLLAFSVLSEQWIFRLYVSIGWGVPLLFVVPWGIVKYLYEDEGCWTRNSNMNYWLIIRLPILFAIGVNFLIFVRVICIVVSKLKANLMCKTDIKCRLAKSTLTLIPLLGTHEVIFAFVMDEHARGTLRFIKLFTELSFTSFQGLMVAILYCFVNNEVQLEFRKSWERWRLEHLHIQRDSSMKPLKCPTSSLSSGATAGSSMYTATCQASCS
Description: Human embryonic kidney cells (HEK) co-expressing the hGLP1 receptor and CRE-Luciferase construct were used to determine agonist potency in this assay. The cells were thawed briefly at 37 °C, transferred to a sterile tube, and re-suspended in complete media at 37 °C. Cells were centrifuged at 1000 rpm for 5 min and collected; the cells were then re-suspended in an assay buffer consisting of Dulbecco’s phosphate-buffered saline (DPBS, GIBCO) with 500 μM of the phosphodiesterase inhibitor 3-isobutyl-1-methylxanthine (IBMX). The assay medium had 0% serum albumin, as specified in Table 1, Table 2, Table 3 and Table 4. The optimal cell density was determined to be 1000 cells/well. Cells were added to wells in 384-well plates containing appropriate pre-prepared dilutions of compounds (test peptides or reference compound exendin-4), sealed, and incubated with CO2 for 30 min. Test peptide solutions were diluted from 10 mM stock solutions to be used in two separate runs (performed in triplicate) from a maximal concentration of 1.0 μM, with 11 concentrations tested for each peptide using serial 1:3 dilution from this maximal concentration. […] The agonist assay was a homogeneous time-resolved fluorescence (HTRF) assay (Cisbio). Following incubation of the cells for 30 min with test or reference peptides, 5 μL of the cAMP acceptor cAMP-d2, prepared previously as a working solution from frozen stock (1:20 dilution), was added to each well of the assay plate along with 5 μL of anti-cAMP antibody-cryptate working solution (diluted 1:20 from frozen stock). The wells were incubated for 1 h at room temperature, and fluorescence was then read at 665 and 615 nm with an Envision reader with a TRF laser. Data were saved and analyzed using Prism software (GraphPad). Concentration–response analysis was performed using 4-parameter logistic fits of the resulting data, and EC50 values were obtained for each test and reference compound.

[1] = biological target: human GLP-1 receptor (hGLP-1R); set-up: method as in PMID 31031702; details: read-out: potency at the human GLP-1 receptor; cited from earlier work

Compound	decreased potency by Aib substitution (hGLP1 receptor)	Emax (hGLP1 receptor)	dpEC50 (contribution of Cα-methylation) (hGLP1 receptor)	pEC50 (hGLP1 receptor; Table 4, Aib-scan peptides)	rescue of potency by Aib versus Ala substitution (hGLP1 receptor)	decreased potency of Aib analog versus Ala analog (hGLP1 receptor)	EC50 (hGLP1 receptor)	pEC50 (hGLP1 receptor; Table 4, Ala-scan peptides)	decreased potency (Aib/Ala comparison) (hGLP1 receptor)	EC50 [1]
C[C@@H](O)[C@H](NC(=O)CNC(=O)[C@H](CCC(=O)O)NC(=O)C(C)(C)NC(=O)C(C)(C)N)C(=O)N[C@@](C)(Cc1ccccc1F)C(=O)N[C@H](C(=O)N[C@@H](CO)C(=O)N[C@@H](CC(=O)O)C(=O)N[C@@H](Cc1ccc(-c2ccccc2)cc1)C(=O)N[C@@H](Cc1ccc(-c2ccccc2)cc1)C(N)=O)[C@@H](C)O [RXL-3030, Aib-Aib-Glu-Gly-Thr-α-Me-Phe(2-F)-Thr-Ser-Asp-Bip-Bip-NH2] (H-[Aib][Aib]EGT[αMePhe(2-F)]TSD[Bip][Bip]-NH2)	< 10 fold	112%	−0.26	–	–	–	–	–	–	–
C[C@@H](O)[C@H](NC(=O)CNC(=O)C(C)(C)NC(=O)C(C)(C)NC(=O)[C@@H](N)Cc1c[nH]cn1)C(=O)N[C@@](C)(Cc1ccccc1F)C(=O)N[C@H](C(=O)N[C@@H](CO)C(=O)N[C@@H](CC(=O)O)C(=O)N[C@@H](Cc1ccc(-c2ccccc2)cc1)C(=O)N[C@@H](Cc1ccc(-c2ccccc2)cc1)C(N)=O)[C@@H](C)O [RXL-3031, His-Aib-Aib-Gly-Thr-α-Me-Phe(2-F)-Thr-Ser-Asp-Bip-Bip-NH2] (H-H[Aib][Aib]GT[αMePhe(2-F)]TSD[Bip][Bip]-NH2)	–	121%	−1.13	8.31	–	–	–	–	–	–
C[C@@H](O)[C@H](NC(=O)C(C)(C)NC(=O)[C@H](CCC(=O)O)NC(=O)C(C)(C)NC(=O)[C@@H](N)Cc1c[nH]cn1)C(=O)N[C@@](C)(Cc1ccccc1F)C(=O)N[C@H](C(=O)N[C@@H](CO)C(=O)N[C@@H](CC(=O)O)C(=O)N[C@@H](Cc1ccc(-c2ccccc2)cc1)C(=O)N[C@@H](Cc1ccc(-c2ccccc2)cc1)C(N)=O)[C@@H](C)O [RXL-3032, His-Aib-Glu-Aib-Thr-α-Me-Phe(2-F)-Thr-Ser-Asp-Bip-Bip-NH2] (H-H[Aib]E[Aib]T[αMePhe(2-F)]TSD[Bip][Bip]-NH2)	≥ 100 fold	118%	0.37	7.80	about 10 fold	–	–	–	–	–
C[C@@H](O)[C@H](NC(=O)[C@](C)(Cc1ccccc1F)NC(=O)C(C)(C)NC(=O)CNC(=O)[C@H](CCC(=O)O)NC(=O)C(C)(C)NC(=O)[C@@H](N)Cc1c[nH]cn1)C(=O)N[C@@H](CO)C(=O)N[C@@H](CC(=O)O)C(=O)N[C@@H](Cc1ccc(-c2ccccc2)cc1)C(=O)N[C@@H](Cc1ccc(-c2ccccc2)cc1)C(N)=O [RXL-3033, His-Aib-Glu-Gly-Aib-α-Me-Phe(2-F)-Thr-Ser-Asp-Bip-Bip-NH2] (H-H[Aib]EG[Aib][αMePhe(2-F)]TSD[Bip][Bip]-NH2)	–	120%	−1.00	–	–	–	–	–	–	–
C[C@@H](O)[C@H](NC(=O)CNC(=O)[C@H](CCC(=O)O)NC(=O)C(C)(C)NC(=O)[C@@H](N)Cc1c[nH]cn1)C(=O)N[C@@](C)(Cc1ccccc1F)C(=O)NC(C)(C)C(=O)N[C@@H](CO)C(=O)N[C@@H](CC(=O)O)C(=O)N[C@@H](Cc1ccc(-c2ccccc2)cc1)C(=O)N[C@@H](Cc1ccc(-c2ccccc2)cc1)C(N)=O [RXL-3034, His-Aib-Glu-Gly-Thr-α-Me-Phe(2-F)-Aib-Ser-Asp-Bip-Bip-NH2] (H-H[Aib]EGT[αMePhe(2-F)][Aib]SD[Bip][Bip]-NH2)	≥ 100 fold	106%	−1.60	7.04	–	about 10 fold	–	–	–	–
C[C@@H](O)[C@H](NC(=O)CNC(=O)[C@H](CCC(=O)O)NC(=O)C(C)(C)NC(=O)[C@@H](N)Cc1c[nH]cn1)C(=O)N[C@@](C)(Cc1ccccc1F)C(=O)N[C@H](C(=O)NC(C)(C)C(=O)N[C@@H](CC(=O)O)C(=O)N[C@@H](Cc1ccc(-c2ccccc2)cc1)C(=O)N[C@@H](Cc1ccc(-c2ccccc2)cc1)C(N)=O)[C@@H](C)O [RXL-3035, His-Aib-Glu-Gly-Thr-α-Me-Phe(2-F)-Thr-Aib-Asp-Bip-Bip-NH2] (H-H[Aib]EGT[αMePhe(2-F)]T[Aib]D[Bip][Bip]-NH2)	≥ 100 fold	79.1%	−2.80	–	–	–	–	–	–	–
C[C@@H](O)[C@H](NC(=O)CNC(=O)[C@H](CCC(=O)O)NC(=O)C(C)(C)NC(=O)[C@@H](N)Cc1c[nH]cn1)C(=O)N[C@@](C)(Cc1ccccc1F)C(=O)N[C@H](C(=O)N[C@@H](CO)C(=O)NC(C)(C)C(=O)N[C@@H](Cc1ccc(-c2ccccc2)cc1)C(=O)N[C@@H](Cc1ccc(-c2ccccc2)cc1)C(N)=O)[C@@H](C)O [RXL-3036, His-Aib-Glu-Gly-Thr-α-Me-Phe(2-F)-Thr-Ser-Aib-Bip-Bip-NH2] (H-H[Aib]EGT[αMePhe(2-F)]TS[Aib][Bip][Bip]-NH2)	≥ 100 fold	96.7%	−2.26	7.04	–	about fivefold	–	–	–	–
C[C@H](NC(=O)[C@H](CCC(=O)O)NC(=O)C(C)(C)NC(=O)[C@@H](N)Cc1c[nH]cn1)C(=O)N[C@H](C(=O)N[C@@H](Cc1ccccc1F)C(=O)N[C@H](C(=O)N[C@@H](CO)C(=O)N[C@@H](CC(=O)O)C(=O)N[C@@H](Cc1ccc(-c2ccccc2)cc1)C(=O)N[C@@H](Cc1ccc(-c2ccccc2)cc1)C(N)=O)[C@@H](C)O)[C@@H](C)O [RXL-3037, His-Aib-Glu-Ala-Thr-Phe(2-F)-Thr-Ser-Asp-Bip-Bip-NH2] (H-H[Aib]EAT[Phe(2-F)]TSD[Bip][Bip]-NH2)	–	73.8%	–	–	–	–	210 nM	6.46	2000 fold	–
C[C@H](NC(=O)[C@@H](NC(=O)CNC(=O)[C@H](CCC(=O)O)NC(=O)C(C)(C)NC(=O)[C@@H](N)Cc1c[nH]cn1)[C@@H](C)O)C(=O)N[C@H](C(=O)N[C@@H](CO)C(=O)N[C@@H](CC(=O)O)C(=O)N[C@@H](Cc1ccc(-c2ccccc2)cc1)C(=O)N[C@@H](Cc1ccc(-c2ccccc2)cc1)C(N)=O)[C@@H](C)O [RXL-3038, His-Aib-Glu-Gly-Thr-Ala-Thr-Ser-Asp-Bip-Bip-NH2] (H-H[Aib]EGTATSD[Bip][Bip]-NH2)	–	37.4%	–	–	–	–	> 1000 nM	5.55	> 1000 fold	–
C[C@@H](O)[C@H](NC(=O)CNC(=O)[C@H](CCC(=O)O)NC(=O)C(C)(C)NC(=O)[C@@H](N)Cc1c[nH]cn1)C(=O)N[C@@](C)(Cc1ccccc1F)C(=O)N[C@H](C(=O)N[C@@H](CO)C(=O)N[C@@H](CC(=O)O)C(=O)NC(C)(C)C(=O)N[C@@H](Cc1ccc(-c2ccccc2)cc1)C(N)=O)[C@@H](C)O [RXL-3051, His-Aib-Glu-Gly-Thr-α-Me-Phe(2-F)-Thr-Ser-Asp-Aib-Bip-NH2] (H-H[Aib]EGT[αMePhe(2-F)]TSD[Aib][Bip]-NH2)	≥ 100 fold	26.8%	−1.34	–	–	–	–	–	> 10,000 fold	–
C[C@@H](O)[C@H](NC(=O)CNC(=O)[C@H](CCC(=O)O)NC(=O)C(C)(C)NC(=O)[C@@H](N)Cc1c[nH]cn1)C(=O)N[C@@](C)(Cc1ccccc1F)C(=O)N[C@H](C(=O)N[C@@H](CO)C(=O)N[C@@H](CC(=O)O)C(=O)N[C@@H](Cc1ccc(-c2ccccc2)cc1)C(=O)NC(C)(C)C(N)=O)[C@@H](C)O [RXL-3052, His-Aib-Glu-Gly-Thr-α-Me-Phe(2-F)-Thr-Ser-Asp-Bip-Aib-NH2] (H-H[Aib]EGT[αMePhe(2-F)]TSD[Bip][Aib]-NH2)	–	112%	1.11	–	more than 100 fold	–	–	–	–	–
semaglutide	–	–	–	–	–	–	–	–	–	0.0062 nM
